Experimental data taken from patent US20080044479A1, “Antimicrobial sanitizing formulations with skin protection properties” (priority 2006, published 2008).

Key:
[1] = tested on: bacteria on skin surfaces; test: Persistence of bacterial reduction on skin surfaces; type: in vivo
Source text: It has been discovered that incorporation of at least one of the aforementioned antimicrobial agents in a formulation comprised of a Surfactant Phase, and a Wax Phase result in a product which is particularly effective in preventing cross-contamination of pathogenic microorganisms in the workplace. […] It is applicable to any area of intact skin, and will kill pathogenic bacteria on contact and remain effective for extended periods of time. The mechanism of microbicidal action of these antibacterial agents is thought to be due to the disruption of intermolecular actions of the microbes.

[2] = tested on: gram-positive and gram-negative bacteria, plus fungi and yeasts; conditions: see list in U.S. Pat. Nos. 6,187,327 and 6,517,854; cited from earlier work

Q: With `Oc1cc(Cl)ccc1Oc1ccc(Cl)cc1Cl` [TRICLOSAN, 2,4,4′-trichloro-2′-hydroxydiphenyl ether] as the molecule, how does the “period for which the incidence of bacteria on skin surfaces is significantly reduced” value [1] read?
A: The value was 3 to 4 h.

Q: And the efficacy against microorganisms [2]?
A: The efficacy against microorganisms was “demonstrated efficacy”.
